SMILES strings stand for the structures. pIC50: −log10 of the molar value.

The test relates to HIV-1 IIIB (T-tropic, CXCR4 utilizing). Put plainly: HOS HIV-1 infectivity assay. It counts as cell-based. The settings on record: Human immunodeficiency virus 1, IIIB; as determined by the infectivity assay; strain not stated in Table 2; read-out: Activity Level. The procedure, abridged:
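Engineered HOS reporter cells in 2% FCS medium received compound 1 h ahead of HIV-1 (~2 million RLU/well). Cultures ran 96 h at 37 °C before luciferase quantitation; parallel uninfected wells were scored for viability by CellTiter-Glo.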
In the case of `CN1CCN(c2cccc3nc(CN(C)C4CCCCc5cccnc54)[nH]c23)CC1` (stereo not shown) [Example 185, N-methyl-N-{[4-(4-methyl-1-piperazinyl)-1H-benzimidazol-2-yl]methyl}-6,7,8,9-tetrahydro-5H-cyclohepta[b]pyridin-9-amine], the pIC50 was over 7.00.

Consider `CN(Cc1nc2c(N3CCN(C(=O)CN)CC3)cccc2[nH]1)C1CCCc2cccnc21` (stereo not shown) [Example 116, N-({4-[4-(Aminoacetyl)-1-piperazinyl]-1H-benzimidazol-2-yl}methyl)-N-methyl-5,6,7,8-tetrahydro-8-quinolinamine], for which the pIC50 is over 7.00.

As to `CNCCN(C)c1cccc2[nH]c(CN(C)C3CCCc4cccnc43)nc12` (stereo not shown) [Example 108, Methyl[2-(methylamino)ethyl](2-{[methyl(5,6,7,8-tetrahydro-8-quinolinyl)amino]methyl}-1H-benzimidazol-4-yl)amine], the pIC50 is over 7.00.

`CCN(CC)CCN1CCN(C(=O)c2ccc3[nH]c(CN(CC)C4CCCc5cccnc54)nc3c2)CC1` (stereo not shown) [Example 46, N-{[5-({4-[2-(Diethylamino)ethyl]-1-piperazinyl}carbonyl)-1H-benzimidazol-2-yl]methyl}-N-ethyl-5,6,7,8-tetrahydro-8-quinolinamine]: the pIC50 was 5.00 to 6.30.

Regarding `CC(C)N(Cc1nc2c(N3CCN(C)CC3)cccc2[nH]1)C1CCCc2cccnc21` (stereo not shown) [Example 112, N-(1-Methylethyl)-N-{[4-(4-methyl-1-piperazinyl)-1H-benzimidazol-2-yl]methyl}-5,6,7,8-tetrahydro-8-quinolinamine], the pIC50 was over 7.00.

As for `CN(Cc1nc2c(CCCN3CCCCC3)cccc2[nH]1)C1CCCc2cccnc21` (stereo not shown) [Example 96, N-methyl-N-({4-[3-(1-piperidinyl)propyl]-1H-benzimidazol-2-yl}methyl)-5,6,7,8-tetrahydro-8-quinolinamine], the pIC50 is over 7.00.

For the compound `CN(Cc1nc2cccc(C(=O)NCCCCCN)c2[nH]1)C1CCCc2cccnc21` (stereo not shown) [Example 61, N-(5-Aminopentyl)-2-{[methyl(5,6,7,8-tetrahydro-8-quinolinyl)amino]methyl}-1H-benzimidazole-4-carboxamide], the pIC50 is 6.30 to 7.00.

Turning to `CN1CCN(c2cccc3nc(C(C)(C)N(C)C4CCCc5cccnc54)[nH]c23)CC1` (stereo not shown) [Example 115, N-Methyl-N-{1-methyl-1-[4-(4-methyl-1-piperazinyl)-1H-benzimidazol-2-yl]ethyl}-5,6,7,8-tetrahydro-8-quinolinamine], the pIC50 is over 7.00.

As for `CC(=O)N1CCN(c2cccc3[nH]c(CN(C)C4CCCc5cccnc54)nc23)CC1` (stereo not shown) [Example 110, N-{[4-(4-Acetyl-1-piperazinyl)-1H-benzimidazol-2-yl]methyl}-N-methyl-5,6,7,8-tetrahydro-8-quinolinamine], the pIC50 was 6.30 to 7.00.

On to `CN(Cc1nc2c(C(=O)N3CCN(Cc4ccccn4)CC3)cccc2[nH]1)C1CCCc2cccnc21` (stereo not shown) [Example 68, N-Methyl-N-[(4-{[4-(2-pyridinylmethyl)-1-piperazinyl]-carbonyl}-1H-benzimidazol-2-yl)methyl]-5,6,7,8-tetrahydro-8-quinolinamine], for which the pIC50 is 5.00 to 6.30.

Take `CCS(=O)(=O)N1CCN(C(=O)c2cccc3[nH]c(CN(C)C4CCCc5cccnc54)nc23)CC1` (stereo not shown) [Example 85, N-[(4-{[4-(Ethylsulfonyl)-1-piperazinyl]carbonyl}-1H-benzimidazol-2-yl)methyl]-N-methyl-5,6,7,8-tetrahydro-8-quinolinamine]: the pIC50 is 6.30 to 7.00.

Regarding `CN(Cc1nc2c(NC(=O)c3ccncc3)cccc2[nH]1)C1CCCc2cccnc21` (stereo not shown) [Example 103, N-(2-{[Methyl(5,6,7,8-tetrahydro-8-quinolinyl)amino]methyl}-1H-benzimidazol-4-yl)-4-pyridinecarboxamide], the pIC50 was 5.00 to 6.30.

In the case of `CN(C)CCNc1cccc2[nH]c(CN(C)C3CCCc4cccnc43)nc12` (stereo not shown) [Example 107, [2-(Dimethylamino)ethyl](2-{[methyl(5,6,7,8-tetrahydro-8-quinolinyl)amino]methyl}-1H-benzimidazol-4-yl)amine], the pIC50 was over 7.00.

For `CN(Cc1nc2c(NC(=O)C(C)(C)N)cccc2[nH]1)C1CCCc2cccnc21` (stereo not shown) [Example 105, 2-Methyl-N-1-(2-{[methyl(5,6,7,8-tetrahydro-8-quinolinyl)amino]methyl}-1H-benzimidazol-4-yl)alaninamide], the pIC50 was 6.30 to 7.00.

Consider `CN1CCN(c2cccc3nc(CN(CCCO)[C@H]4CCCc5cccnc54)n(C)c23)CC1` [Example 181, 3-{{[1-Methyl-7-(4-methyl-1-piperazinyl)-1H-benzimidazol-2-yl]methyl}[(8S)-5,6,7,8-tetrahydro-8-quinolinyl]amino}-1-propanol], for which the pIC50 is over 7.00.

On to `CN(CCc1c[nH]cn1)C(=O)c1cccc2[nH]c(CN(C)C3CCCc4cccnc43)nc12` (stereo not shown) [Example 90, N-[2-(1H-imidazol-4-yl)ethyl]-N-methyl-2-{[methyl(5,6,7,8-tetrahydro-8-quinolinyl)amino]methyl}-1H-benzimidazole-4-carboxamide], for which the pIC50 is over 7.00.

Take `CN(Cc1nc2cc(C(=O)N3CCN(C(=O)OCc4ccccc4)CC3)ccc2[nH]1)C1CCCc2cccnc21` (stereo not shown) [Example 56, Phenylmethyl 4-[(2-{[methyl(5,6,7,8-tetrahydro-8-quinolinyl)amino]methyl}-1H-benzimidazol-5-yl)carbonyl]-1-piperazinecarboxylate]: the pIC50 is 5.00 to 6.30.

For the compound `CC(C)N1CCN(c2cccc3[nH]c(CN(C)C4CCCc5cccnc54)nc23)CC1` (stereo not shown) [Example 111, N-Methyl-N-({4-[4-(1-methylethyl)-1piperazinyl]-1H-benzimidazol-2-yl}methyl)-5,6,7,8-tetrahydro-8-quinolinamine], the pIC50 is over 7.00.

With `CN(Cc1nc2c(NC(=O)c3cccnc3)cccc2[nH]1)C1CCCc2cccnc21` (stereo not shown) [Example 102, N-(2-{[Methyl(5,6,7,8-tetrahydro-8-quinolinyl)amino]methyl}-1H-benzimidazol-4-yl)-3-pyridinecarboxamide], the pIC50 was 6.30 to 7.00.

For `CN1CCN(c2ccc(Cl)c3nc(CN(C)C4CCCc5cccnc54)[nH]c23)CC1` (stereo not shown) [Example 171, N-{[4-Chloro-7-(4-methyl-1-piperazinyl)-1H-benzimidazol-2-yl]methyl}-N-methyl-5,6,7,8-tetrahydro-8-quinolinamine], the pIC50 is over 7.00.

With `CN(C)C1CCN(C(=O)c2cccc3[nH]c(CN(C)C4CCCc5cccnc54)nc23)C1` (stereo not shown) [Example 89, N-[(4-{[3-(Dimethylamino)-1-pyrrolidinyl]carbonyl}-1H-benzimidazol-2-yl)methyl]-N-methyl-5,6,7,8-tetrahydro-8-quinolinamine], the pIC50 was 6.30 to 7.00.

In the case of `CCN(Cc1nc2cc(C(=O)NCCCCCN)ccc2[nH]1)C1CCCc2cccnc21` (stereo not shown) [Example 44, N-(5-Aminopentyl)-2-{[ethyl(5,6,7,8-tetrahydro-8-quinolinyl)amino]methyl}-1H-benzimidazole-5-carboxamide], the pIC50 is 5.00 to 6.30.

As to `CN(Cc1nc2c(C(=O)NCCc3cccnc3)cccc2[nH]1)C1CCCc2cccnc21` (stereo not shown) [Example 69, 2-{[Methyl(5,6,7,8-tetrahydro-8-quinolinyl)amino]methyl}-N-[2-(3-pyridinyl)ethyl]-1H-benzimidazole-4-carboxamide], the pIC50 was 5.00 to 6.30.

With `CN(Cc1nc2cccc(N3CCN4CCC[C@@H]4C3)c2[nH]1)[C@H]1CCCc2cccnc21` [Example 141, (8S)—N-({4-[(8aR)-hexahydropyrrolo[1,2-a]pyrazin-2(1H)-yl]-1H-benzimidazol-2-yl}methyl)-N-methyl-5,6,7,8-tetrahydro-8-quinolinamine], the pIC50 is over 7.00.

With `CN(Cc1nc2c(N3CCN(C(=O)c4ccccn4)CC3)cccc2[nH]1)C1CCCc2cccnc21` (stereo not shown) [Example 117, N-Methyl-N-({4-[4-(2-pyridinylcarbonyl)-1-piperazinyl]-1H-benzimidazol-2-yl}methyl)-5,6,7,8-tetrahydro-8-quinolinamine], the pIC50 was 6.30 to 7.00.

`CCN(Cc1nc2cccc(N3CCN(C)CC3)c2[nH]1)[C@H]1CCCc2cccnc21` [Example 135, (8S)—N-Ethyl-N-{[4-(4-methyl-1-piperazinyl)-1H-benzimidazol-2-yl]methyl}-5,6,7,8-tetrahydro-8-quinolinamine]: the pIC50 is over 7.00.

Consider `CN1CCN(c2c(Cl)ccc3nc(CN(C)C4CCCc5cccnc54)[nH]c23)CC1` (stereo not shown) [Example 170, N-{[5-Chloro-4-(4-methyl-1-piperazinyl)-1H-benzimidazol-2-yl]methyl}-N-methyl-5,6,7,8-tetrahydro-8-quinolinamine], for which the pIC50 is over 7.00.

Regarding `CCN(Cc1nc2cccc(N3CCN4CCC[C@@H]4C3)c2[nH]1)[C@H]1CCCc2cccnc21` [Example 142, (8S)—N-Ethyl-N-({4-[(8aR)-hexahydropyrrolo[1,2-a]pyrazin-2(1H)-yl]-1H-benzimidazol-2-yl}methyl)-5,6,7,8-tetrahydro-8-quinolinamine], the pIC50 was over 7.00.

As for `CCN(Cc1nc2cc(C(=O)N3CCN(C)CC3)ccc2[nH]1)C1CCCc2cccnc21` (stereo not shown) [Example 48, N-Ethyl-N-({5-[(4-methyl-1-piperazinyl)carbonyl]-1H-benzimidazol-2-yl}methyl)-5,6,7,8-tetrahydro-8-quinolinamine], the pIC50 was 6.30 to 7.00.

`Cn1c(CN(CCO)[C@H]2CCCc3cccnc32)nc2cccc(N3CCNCC3)c21` [Example 178, 2-{{[1-Methyl-7-(1-piperazinyl)-1H-benzimidazol-2-yl]methyl}[(8S)-5,6,7,8-tetrahydro-8-quinolinyl]amino}ethanol]: the pIC50 was over 7.00.

Turning to `CN(Cc1nc2ccc(C(=O)N3CCC(CCN4CCCC4)CC3)cc2[nH]1)C1CCCc2cccnc21` (stereo not shown) [Example 42, N-Methyl-N-{[5-({4-[2-(1-pyrrolidinyl)ethyl]-1-piperidinyl}carbonyl)-1H-benzimidazol-2-yl]methyl}-5,6,7,8-tetrahydro-8-quinolinamine], the pIC50 is 5.00 to 6.30.

(Values after US20080045537A1, “Chemical Compounds” (priority 2004, published 2008).)
